{
  "source": "patent US12517131B2",
  "about": "“Methods for labeling eukaryotic cells from a multicellular organism as well as for treating and/or diagnosing a cancer using modified monosaccharide compounds” (DIAMIDEX, priority 2019, dated 2026)",
  "experiment_in_all_cases": "Labeling of cancer and non-cancer cells, fluorescence signal ratio",
  "type_in_all_cases": "cell-based, human",
  "key": {"[1]": {"system": "A431 (vs Hacat)", "settings": "A431 (30 h) vs Hacat (30 h); Ara-N3 10 mM; FBS 10%; one doubling time", "procedure": "(§1) The fluorescence Assimilation of Ara-N3 probes was visualized by copper-free click chemistry using sulfo-DBCO-biotin (1 mM), followed by labeling with a mouse anti-biotin Alexa Fluor 488 antibody conjugate (0.62 mg/ml stock, Jackson ImmunoResearch, dilution 1/10). The click reaction was carry-out as following: At 24 h incubation times, the culture mediums were removed, and attached cells were washed twice with PBS. Cells were detached with Tryp-LE, washed twice with PBS, and centrifuged at 13000 g for 2 min. The cellular pellets were resuspended with 10 μL of sulfo-DBCO-biotin and incubated 30 min in the dark, and at 37 C°. Then, cells were washed twice with PBS, centrifuged, and cellular pellets were resuspended with 10 μL of a mouse anti-biotin antibody solution, before to be incubated at room temperature in dark. Thereafter, cells were washed twice with PBS and small cellular suspension spots (5 μL) were put in Polysine® adhesion slides (VWR international S.A.S), in the dark room, until dry (20 min). The spots were fixed with 4% paraformaldehyde during 20 min, in dark and room temperature. Slides were then washed twice with PBS, before recovering with square cover glasses (VWR international S.A.S) using glycerol Mounting Medium (Dako) and stored at 4° C. in dark room.\n(§2) The fluorescence acquisition was recorded using Olympus Microscopy IX83 (Olympus Life Science) equipped with a 60×/1.3 […]/1.4 SRI (silicone refractive index) objective, and Hamamatsu oreca flash 4 LT camera with 109 nm/pixel calibrated pixel size. The excitation light was emitted by X-CITE 120LED using the AT180/30X excited filter and signal was monitored using AT535/40m emission filter. Green light exposition time was 600 ms and white light exposition time was determined by DIC methods at […]. The acquisition area size analyzed by the Celisens dimension V1.16 software was different depending on the cell number containing in the spot.\n(§3) The images were processed using count and measure unit of the Cellsens dimension V1.16 software. The background noise was deleted as follows: ROI were first defined on the background of the image and the average pixel intensity was calculated. The value thus obtained was subtracted from all pixels of the image. The fluorescence intensity of each cell was determined from a threshold set at a value of 3030. All pixels that have intensity below 3030 were not counted.\n(§4) The same experiments as in example 2 with other cancer and corresponding non cancer cells were performed. The culture media were adapted to the tested cells and supplemented by 10% fetal bovine serum (FBS). Ara-N3 probe (10 mM) was added to culture media with FBS concentration (10%). The incubation times corresponded to one doubling time or twice doubling time of the tested cells (see table below).\n(§5) The fluorescence signal cancer/non cancer ratios were calculated based on fluorescence intensities obtained with Ara-N3 tested on cancer and corresponding non cancer cells."}, "[2]": {"system": "AGS (vs Stomach epitelial cell)", "settings": "AGS (doubling time 30 h) vs Stomach epitelial cell (30 h); Ara-N3 10 mM; FBS 10%; test at 2 doubling time", "procedure": "as §1, §2, §3, §4, §5"}, "[3]": {"system": "BL-2 (vs Isolated primary B cells)", "settings": "BL-2 (24 h) vs Isolated primary B cells; Ara-N3 10 mM; FBS 10%", "procedure": "as §1, §2, §3, §4, §5"}, "[4]": {"system": "DOHH-2 (vs Isolated primary B cells)", "settings": "DOHH-2 (40-48 h) vs Isolated primary B cells; Ara-N3 10 mM; FBS 10%", "procedure": "as §1, §2, §3, §4, §5"}, "[5]": {"system": "HL-60 (vs Lymphocytes T)", "settings": "HL-60 (28 h) vs Lymphocytes T (24 h); Ara-N3 10 mM; FBS 10%; one doubling time", "procedure": "as §1, §2, §3, §4, §5"}, "[6]": {"system": "K562 (vs Lymphocytes T)", "settings": "K562 (24 h) vs Lymphocytes T (24 h); Ara-N3 10 mM; FBS 10%; one doubling time", "procedure": "as §1, §2, §3, §4, §5"}, "[7]": {"system": "KCL22 (vs Lymphocytes)", "settings": "KCL22 (24 h) vs Lymphocytes (24 h); Ara-N3 10 mM; FBS 10%; one doubling time", "procedure": "as §1, §2, §3, §4, §5"}, "[8]": {"system": "Kasumi-1 (vs B12-F8)", "settings": "Kasumi-1 (48 h) vs B12-F8 (24 h); Ara-N3 10 mM; FBS 10%; one doubling time", "procedure": "as §1, §2, §3, §4, §5"}, "[9]": {"system": "MDA MB175 (vs HME-1)", "settings": "MDA MB175 (30 h) vs HME-1 (30 h); Ara-N3 10 mM; FBS 10%; one doubling time", "procedure": "as §1, §2, §3, §4, §5"}, "[10]": {"system": "MDA MB453 (vs HME-1)", "settings": "MDA MB453 (30 h) vs HME-1 (30 h); Ara-N3 10 mM; FBS 10%; one doubling time", "procedure": "as §1, §2, §3, §4, §5"}, "[11]": {"system": "MDA-MB-231 (vs Breast epithelial cell)", "settings": "MDA-MB-231 (doubling time 40 h) vs Breast epithelial cell (40 h); Ara-N3 10 mM; FBS 10%; test at 2 doubling time", "procedure": "as §1, §2, §3, §4, §5"}, "[12]": {"system": "OCI-Ly10 (vs Isolated primary B cells)", "settings": "OCI-Ly10 (24 h) vs Isolated primary B cells; Ara-N3 10 mM; FBS 10%", "procedure": "as §1, §2, §3, §4, §5"}, "[13]": {"system": "OCI-Ly3 (vs Isolated primary B cells)", "settings": "OCI-Ly3 (24 h) vs Isolated primary B cells; Ara-N3 10 mM; FBS 10%", "procedure": "as §1, §2, §3, §4, §5"}, "[14]": {"system": "PANC (vs HPNE)", "settings": "PANC (32 h) vs HPNE (32 h); Ara-N3 10 mM; FBS 10%; one doubling time", "procedure": "as §1, §2, §3, §4, §5"}, "[15]": {"system": "RS4 (vs Lymphocytes T)", "settings": "RS4 (35 h) vs Lymphocytes T (24 h); Ara-N3 10 mM; FBS 10%; one doubling time", "procedure": "as §1, §2, §3, §4, §5"}, "[16]": {"system": "SK-BR-7 (vs HME-1)", "settings": "SK-BR-7 (30 h) vs HME-1 (30 h); Ara-N3 10 mM; FBS 10%; one doubling time", "procedure": "as §1, §2, §3, §4, §5"}, "[17]": {"system": "SU-DHL-4 (vs Isolated primary B cells)", "settings": "SU-DHL-4 (40 h) vs Isolated primary B cells; Ara-N3 10 mM; FBS 10%", "procedure": "as §1, §2, §3, §4, §5"}},
  "data": [
    {"smiles": "[N-]=[N+]=NC[C@H]1OC(O)[C@@H](O)[C@@H]1O", "note": "(stereo partly drawn) [Ara-N3, 5-azido-5-deoxy-D-arabinofuranose]", "values": [
      {"measurement": "Cancer/Non Cancer Ratio (fluorescence signal)", "setting": "[1]", "result": 17.5},
      {"measurement": "Cancer/Non Cancer Ratio (fluorescence signal)", "setting": "[2]", "result": 2.9},
      {"measurement": "Cancer/Non Cancer Ratio (fluorescence signal)", "setting": "[3]", "result": 2.5},
      {"measurement": "Cancer/Non Cancer Ratio (fluorescence signal)", "setting": "[4]", "result": 7.4},
      {"measurement": "Cancer/Non Cancer Ratio (fluorescence signal)", "setting": "[5]", "result": 1.6},
      {"measurement": "Cancer/Non Cancer Ratio (fluorescence signal)", "setting": "[6]", "result": 1.6},
      {"measurement": "Cancer/Non Cancer Ratio (fluorescence signal)", "setting": "[7]", "result": 4.9},
      {"measurement": "Cancer/Non Cancer Ratio (fluorescence signal)", "setting": "[8]", "result": 1.5},
      {"measurement": "Cancer/Non Cancer Ratio (fluorescence signal)", "setting": "[9]", "result": 2},
      {"measurement": "Cancer/Non Cancer Ratio (fluorescence signal)", "setting": "[10]", "result": 2.2},
      {"measurement": "Cancer/Non Cancer Ratio (fluorescence signal)", "setting": "[11]", "result": 2.5},
      {"measurement": "Cancer/Non Cancer Ratio (fluorescence signal)", "setting": "[12]", "result": 2.1},
      {"measurement": "Cancer/Non Cancer Ratio (fluorescence signal)", "setting": "[13]", "result": 6.2},
      {"measurement": "Cancer/Non Cancer Ratio (fluorescence signal)", "setting": "[14]", "result": 1.8},
      {"measurement": "Cancer/Non Cancer Ratio (fluorescence signal)", "setting": "[15]", "result": 1.6},
      {"measurement": "Cancer/Non Cancer Ratio (fluorescence signal)", "setting": "[16]", "result": 2.1},
      {"measurement": "Cancer/Non Cancer Ratio (fluorescence signal)", "setting": "[17]", "result": 2.5}
    ]}
  ]
}
